The subject of one test is MGC-803. As to the kind of experiment: Antiproliferative activity against human MGC-803 cells assessed as inhibition of cell growth measured after 48 hrs by CCK8 method. The format is functional, cell-based. The settings on record: MGC-803, 48 h. A general note: Tetrazolium dyes change colour on reduction, which living cells bring about.
The next test has as its system KYSE-30. The test is described as follows: Antiproliferative activity against human KYSE-30 cells assessed as inhibition of cell growth measured after 48 hrs by CCK8 method. The format is functional, cell-based. The settings on record: KYSE-30, 48 h.
In a further test the test system is HCT-116. The test is described as follows: Antiproliferative activity against human HCT-116 cells assessed as inhibition of cell growth measured after 48 hrs by CCK8 method. In kind it is functional, cell-based. The settings on record: HCT-116, 48 h.
A further test has as its system HeLa. As to the kind of experiment: Growth inhibition of human HeLa cells. In kind it is functional.
In test [1] the target is Tubulin. The test is described as follows: Inhibition of tubulin polymerization (unknown origin). In kind it is protein-complex assay, Homo sapiens.
In a further test the test system is PC-3. The test is described as follows: Antiproliferative activity against human PC-3 cells assessed as inhibition of cell growth measured after72 hrs by MTT assay. The format is functional, cell-based.
For test [2], the target named is Tubulin. The test is described as follows: Inhibition of tubulin polymerization (unknown origin) by spectrophotometer analysis. The format is protein-complex assay, Homo sapiens.

In the case of `COc1ccc(CN(C(=O)Cn2cc(CSc3nc4ccccc4s3)nn2)c2ccc(C)cc2)cc1`, the IC50 (as a rule, the concentration needed to halve the response being measured) was 46.5 µM with MGC-803, 63.1 µM in the test with KYSE-30 and more than 80 µM in the test on HCT-116.
The corresponding values for `COc1ccc(CN(C(=O)Cn2cc(CSc3nc4ccc(Br)cc4s3)nn2)c2cc(OC)c(OC)c(OC)c2)cc1O` are 0.054 µM, 0.049 µM and 0.064 µM.
Consider `COc1ccc2nc(-c3ccc(-n4cnnc4-c4cc(OC)c(OC)c(OC)c4)c(C)c3)sc2c1`, for which, in the test on HeLa, the GI50 (as a rule, the concentration that inhibits growth by half) turned out to be 0.04 µM. The molecule further registered an IC50 at Tubulin [1] of 1.91 µM.
`COc1ccc(CN(C(=O)Cn2cc(CSc3nc4ccc(Cl)cc4s3)nn2)c2cc(OC)c(OC)c(OC)c2)cc1O`: the figures for the IC50 with MGC-803, in the test with KYSE-30 and in the test with HCT-116 were 0.069 µM, 0.072 µM and 0.062 µM, respectively.
Turning to `COc1cc2c(c(OC)c1OC)-c1ccc(OC)c(=O)cc1[C@@H](NC(C)=O)CC2` [COLCHICINE], the IC50 amounted to 0.046 µM with MGC-803 and 0.048 µM with KYSE-30.
In the case of `COc1ccc(CN(C(=O)Cn2cc(CSc3nc4ccccc4s3)nn2)c2ccc(Cl)cc2)cc1`, the IC50 with MGC-803 is 62.1 µM; in the test with KYSE-30, more than 80 µM; with HCT-116, 59.5 µM.
With `COc1ccc(CN(C(=O)Cn2cc(CSc3nc4ccccc4s3)nn2)c2cc(OC)c(OC)c(OC)c2)cc1[N+](=O)[O-]`, the IC50 with MGC-803 amounted to 8.16 µM; in the test with KYSE-30 it was 12.1 µM; with HCT-116 it was 16.2 µM.
With `COc1cc(N(Cc2ccc(Cl)cc2)C(=O)Cn2cc(CSc3nc4ccccc4s3)nn2)cc(OC)c1OC`, the IC50 in the test with MGC-803, with KYSE-30 and with HCT-116 was more than 80 µM throughout.
`COc1cc(N(Cc2ccc(Br)cc2)C(=O)Cn2cc(CSc3nc4ccccc4s3)nn2)cc(OC)c1OC`: the IC50 in the test on MGC-803 is 74.3 µM; in the test with KYSE-30, more than 80 µM; in the test on HCT-116 it was 60.1 µM.
As to `COc1cc(CN(C(=O)Cn2cc(CSc3nc4ccccc4s3)nn2)c2cc(OC)c(OC)c(OC)c2)cc(OC)c1OC`, the IC50 in the test on MGC-803, in the test with KYSE-30 and in the test on HCT-116 was more than 80 µM each time.
For `COc1ccc2nc(-c3cccnc3-c3cc(OC)c(OC)c(OC)c3)sc2c1`, the IC50 at Tubulin [1] is 1.67 µM.
As for `COc1ccc(CN(C(=O)Cn2cc(CSc3nc4ccccc4s3)nn2)c2cc(OC)c(OC)c(OC)c2)cc1Br`, the IC50 with MGC-803 was 0.82 µM; in the test on KYSE-30, 1.14 µM; in the test on HCT-116, 1.33 µM.
The corresponding values for `COc1ccc(CN(C(=O)Cn2cc(CSc3nc4ccccc4s3)nn2)c2cc(OC)c(OC)c(OC)c2)cc1F` are 0.29 µM, 0.76 µM and 0.47 µM.
The corresponding values for `COc1ccc(CN(C(=O)Cn2cc(CSc3nc4ccccc4s3)nn2)c2ccc(OC)c(OC)c2)cc1` are 38.5 µM, more than 80 µM and 52.4 µM.
For `COc1ccc(CN(C(=O)Cn2cc(CSc3nc4ccccc4s3)nn2)c2cc(OC)c(OC)c(OC)c2)cc1OC`, in that order: 1.56 µM, 1.74 µM and 2.19 µM.
Turning to `COc1ccc(CN(C(=O)Cn2cc(CSc3nc4ccccc4s3)nn2)c2ccc(OC)cc2)cc1`, the IC50 with MGC-803 amounted to 14.5 µM; in the test with KYSE-30, 28.3 µM; in the test on HCT-116 it was 34.2 µM.
On to `COc1cc(N(Cc2c(C)noc2C)C(=O)CSc2nc3ccccc3s2)cc(OC)c1OC`, for which, in the test with PC-3, the IC50 was 2.04 µM.
In the case of `COc1ccc(CN(C(=O)Cn2cc(CSc3nc4ccccc4s3)nn2)c2ccc(Br)cc2)cc1`, the IC50 with MGC-803 was 53.3 µM; with KYSE-30, 35.5 µM; in the test on HCT-116, 60.3 µM.
For `COc1cc(N(Cc2cccnc2)C(=O)Cn2cc(CSc3nc4ccccc4s3)nn2)cc(OC)c1OC`, in that order: more than 80 µM, more than 80 µM and more than 80 µM.
For `COc1cc(N(Cc2ccc(F)cc2)C(=O)Cn2cc(CSc3nc4ccccc4s3)nn2)cc(OC)c1OC`, the IC50 in the test on MGC-803, in the test on KYSE-30 and in the test on HCT-116 was more than 80 µM in each case.
In the case of `COc1cc(N(Cc2c(C)noc2C)C(=O)Cn2cc(CSc3nc4ccccc4s3)nn2)cc(OC)c1OC`, the IC50 in the test with MGC-803, in the test on KYSE-30 and in the test with HCT-116 was more than 80 µM each time.
Regarding `COc1ccc(CN(C(=O)Cn2cc(CSc3nc4ccccc4s3)nn2)c2ccc(F)cc2)cc1`, the IC50 in the test with MGC-803 was 68.5 µM; in the test on KYSE-30, 77.6 µM; in the test with HCT-116 it was more than 80 µM.
Consider `COc1ccc(CN(C(=O)Cn2cc(CSc3nc4ccccc4s3)nn2)c2cc(OC)c(OC)c(OC)c2)cc1`, for which the IC50 with MGC-803 stood at 1.03 µM; in the test on KYSE-30, 1.44 µM; with HCT-116 it was 1.68 µM.
On to `COc1cc(N(Cc2nc3ccccc3[nH]2)C(=O)Cn2cc(CSc3nc4ccccc4s3)nn2)cc(OC)c1OC`, for which the IC50 in the test on MGC-803 amounted to 40.3 µM; with KYSE-30, 56.8 µM; with HCT-116 it was 68.7 µM.
As to `COc1cc(N(Cc2ccc(C)cc2)C(=O)Cn2cc(CSc3nc4ccccc4s3)nn2)cc(OC)c1OC`, the values for the IC50 with MGC-803, in the test with KYSE-30 and in the test on HCT-116 were 2.35 µM, 1.86 µM and 3.97 µM, respectively.
For `COc1ccc(CN(C(=O)Cn2cc(CSc3nc4ccccc4s3)nn2)c2ccccc2)cc1`, in that order: 52.5 µM, 62.2 µM and 63.7 µM.
The corresponding values for `COc1ccc(CN(C(=O)Cn2cc(CSc3nc4c(C)cccc4s3)nn2)c2cc(OC)c(OC)c(OC)c2)cc1O` are 0.089 µM, 0.067 µM and 0.078 µM.
For `COc1ccc2nc(SCc3cn(CC(=O)N(Cc4ccc(OC)c(O)c4)c4cc(OC)c(OC)c(OC)c4)nn3)sc2c1`, in that order: 0.063 µM, 0.058 µM and 0.126 µM.
At Tubulin [2], `COc1cc(C(=O)c2nc3cc(Br)ccc3s2)cc(OC)c1OC` returned an IC50 of 13.1 µM.
In the case of `COc1ccc(CN(C(=O)Cn2cc(CSc3nc4ccccc4s3)nn2)c2cc(OC)c(OC)c(OC)c2)cc1N`, the IC50 came to 0.088 µM in the test with MGC-803, 0.059 µM with KYSE-30 and 0.094 µM with HCT-116.

The values above are taken from ChEMBL document CHEMBL5518189, “Design, synthesis and biological evaluation of 1,2,3-triazole benzothiazole derivatives as tubulin polymerization inhibitors with potent anti-esophageal cancer activities” (Eur J Med Chem, 2024).
